From US8853452B2, “Compounds, their syntheses, compositions, and methods to treat cancer” (The Administrators of the Tulane Educational Fund, priority 2009, dated 2014) come the findings set out here.

Data set [1] has as its system MCF-7 cells. Description: Viability assay using MTT. Format: cell-based. The conditions noted are these: Homo sapiens, MCF7, 24 h, compounds 0.1 to 100 μM, unit inferred, read-out: MCF-7 (IC50), Viability Assays. As to the method:
(§1) Human cancer cell lines derived from breast, MCF-7, endocrine-resistant MDA-MB-231, and chemoresistant MCF-7TN-R were cultured in 75 cm^2 culture flasks in DMEM (Invitrogen, Co.) supplemented with 10% FBS (Life Technologies, Inc., Gaithersburg, Md.), basic minimum MEM essential (50×, Invitrogen Co.) and MEM non-essential (100×, Invitrogen, Co.) amino acids, sodium pyruvate (100× Invitrogen Co.), antimicotic-antibiotic (10,000 U/mL penicillin G sodium; 10,000 μg/mL streptomycin sulphate; 25 μg/mL amphotericin B as Fungizone®), and human recombinant insulin (4 mg/mL Invitrogen Co). Culture flasks were maintained in a tissue culture incubator in a humidified atmosphere of 5% CO2 and 95% air at 37° C.
(§2) The effect of ceramide and compounds on cell growth was determined using MTT viability assays. MCF-7, MDA-MB-231, or MCF-7TN-R cells were plated at […] cells per well in a 96-well plate in phenol-free DMEM supplemented with 5% FBS and allowed to adhere overnight. Cells were then treated with compounds I-1, I-2, I-3, or I-4 (ranging from 0.1 to 100 μM) for 24 h. Following that treatment, 20 μL of MTT (5 mg/ml) reagent was added to each well prior to incubation for 4 hr. Cells were then lysed with 20% SDS in 50% dimethylformamide. The pH and absorbances were read on an EL×808 Microtek plate reader (Winooski, Vt.) at 550 nm, with a reference wavelength of 630 nm.
(§3) Statistical analysis of IC50 values were calculated from concentration-response curves using GraphPad Prism 5.0 (Graphpad Software, San Diego, Calif.), using with the equation: Y=Bottom+(Top−bottom)/1+10 Log EC50−X assuming a standard slope, where the response goes from 10% to 90% of maximal as X increases over two log units. Differences in IC50 were compared using Student's unpaired t-test with p<0.05 as the limit of statistical significance. Experiments comparing multiple concentrations to the control were tested with one-way ANOVA with Bonferroni post-test to compare individual concentrations. All statistical analysis were done using GraphPad Prism 5.0. […].

In data set [2] the test system is MCF-7TN-R cells. Description: Viability assay using MTT. Format: cell-based. The conditions noted are these: Homo sapiens, 24 h, compounds 0.1 to 100 μM, unit inferred, read-out: MCF-7TN-R (IC50), Viability Assays. The procedure: as §1, §2, §3
Data set [3] concerns MDA-MB-231 cells. As to the kind of experiment: Viability assay using MTT. The conditions noted are these: Homo sapiens, 24 h, compounds 0.1 to 100 μM, unit inferred, read-out: MDA-MB-231 (IC50), Viability Assays. It is filed as cell-based. The procedure:
as §1, §2, §3

Data set [4] has as its system MCF-7 cells. Description: Clonogenic survival assay. It is filed as cell-based, Human. As to the method: as §1
(§4) MCF-7, MDA-MB-231, or MCF-7TN-R cells were plated in 6-well plates at 1000 cells per well. Twenty-four hours later, cells were treated with varying concentrations of the compound and then monitored microscopically for colony growth. Ten days later the cells were fixed with 3% glutaraldehyde. Following fixation for 15 min, the plates were washed and stained with a 0.4% solution of crystal violet in 20% methanol for 30 min, washed with PBS, and air-dried. Colonies of 30 cells were counted as positive. Results are normalized to percent clonogenic survival from untreated control cells. Statistical analysis of IC50 values were calculated from concentration-response curves using GraphPad Prism 5.0 (Graphpad Software, San Diego, Calif.), using with the equation: Y=Bottom+(Top−bottom)/1+10 Log EC50−X.
(§5) Compounds II-1, II-2, II-3, II-4, II-5, and II-6 were compared for their inhibitory effect on breast cancer clonogenic survival. Cells were treated with varying concentration of compound, ranging from 0.1 μM-20 μM for 10 days. […] At endpoint, cell colonies were fixed, stained and recorded as percent vehicle control.

For data set [5], the system named is MCF-7TN-R cells. As to the kind of experiment: Clonogenic survival assay. It is filed as cell-based, Human. The conditions noted are these: Homo sapiens, 240 h. The procedure:
as §1, §4, §5

The test system of data set [6] is MDA-MB-231 cells. As to the kind of experiment: Clonogenic survival assay. Format: cell-based, Human. The conditions noted are these: Homo sapiens, MDA-MB-231, 240 h. The procedure: as §1, §4, §5
Data set [7] can be described thus: Log K (structure-activity parameter). Format: physicochemical.
Data set [8] deals with MCF-7TN-R cells. Description: Proliferation assay. Format: cell-based. The conditions noted are these: Homo sapiens; Table 3; read-out: IC50 (μM), anti-proliferative in MCF-7TN-R cells. As to the method: The ability of compound II-3 to block proliferation as an anti-survival mechanism in addition to apoptosis was determined by measuring anti-proliferative effects.
Nineteen compounds were synthesized using fifteen benzaldehydes as starting material. […] These were tested as potential anti-proliferative agents in MCF-7TN-R cells, and the structure-activity relationships were studied using several parameters. […] In compounds containing a methyl group, a significant increase of the PAC (C) in o-substituted compound was detected, which may account for the increased anti-proliferation activity. Ortho-substituted analogs with electron withdrawing groups by induction can have beneficial effects, and PAC (C) can be a useful predictor of the structural property of the molecule.

[9] abbreviates: Homo sapiens, MCF7, 240 h, Table 1B, 10 days, read-out: MCF-7 (IC50), Clonogenic Survival Assays.
The mark [10] stands for this setting: Table 1B, 10 days, read-out: MCF-7TN-R (IC50), Clonogenic Survival Assays.
[11] abbreviates: Table 1B, 10 days, read-out: MDA-MB-231 (IC50), Clonogenic Survival Assays.
[12] abbreviates: Homo sapiens, MCF7, 240 h, Table 2, 0.1 μM-20 μM for 10 days, read-out: MCF-7 (IC50), clonogenic survival.
Setting [13] is: Table 2, 0.1 μM-20 μM for 10 days, read-out: MCF-7-TNR (IC50), clonogenic survival.
Where [14] appears, read: Table 2, 0.1 μM-20 μM for 10 days, read-out: MDA-MB-231 (IC50), clonogenic survival.

As for `CCCCCCCCCCCCC/C=C/[C@@H](O)[C@H](CO)NC(=O)C1CCCCC1` [Compound I-1, N-((2S,3R,E)-1,3-dihydroxyoctadec-4-en-2-yl)cyclohexanecarboxamide], the IC50 with MCF-7 cells [1] was 22.6 µM; in the data set with MCF-7TN-R cells [2], 2.4 µM; with MDA-MB-231 cells [3] it was 5.4 µM; in the data set on MCF-7 cells [4] (setting [9]), 1.5 µM; with MCF-7TN-R cells [5] (setting [10]), 0.7 µM; with MDA-MB-231 cells [6] (setting [11]), 1.6 µM.
Take `CCCCCCCCCCCCC/C=C/[C@@H](O)[C@H](CO)NCc1ccccc1` [Compound I-2, (2S,3R,E)-2-(benzylamino)octadec-4-ene-1,3-diol]: the IC50 was found to be 6.3 µM in the data set with MCF-7 cells [1]; 3 µM in the data set with MCF-7TN-R cells [2]; 3.7 µM with MDA-MB-231 cells [3]; 1.5 µM with MCF-7 cells [4] (setting [9]); 0.6 µM with MCF-7TN-R cells [5] (setting [10]); 1.1 µM in the data set on MDA-MB-231 cells [6] (setting [11]).
Regarding `CCCCCCCCCCCCCCNC(=O)[C@H](CO)NC(=O)C1CCCCC1` [II-1, (S)—N-(3-hydroxy-1-oxo-1-(tetradecylamino)propan-2-yl)cyclohexanecarboxamide], the IC50 with MCF-7 cells [4] (setting [12]) was determined as 7.2 µM; with MCF-7TN-R cells [5] (setting [13]), 23.5 µM; with MDA-MB-231 cells [6] (setting [14]), 11.5 µM.
On to `CCCCCCCCCCCCCCNC(=O)[C@H](CO)NCc1ccccc1` [II-2, (S)-2-(benzylamino)-3-hydroxy-N-tetradecylpropanamide], for which the IC50 was determined as 4.97 µM in the data set on MCF-7 cells [4] (setting [12]); 5 µM with MCF-7 cells [4] (Table 2, 0.1 μM-20 μM for 10 days, read-out: MCF-7 (IC50), clonogenic survival); 15.2 µM in the data set with MCF-7TN-R cells [5] (setting [13]); 10.5 µM with MDA-MB-231 cells [6] (setting [14]).
`CCCCCCCCCCCCCCNC(=O)[C@H](CO)NC(=O)C(C)(C)C` [II-4, (S)-3-hydroxy-2-pivalamido-N-tetradecylpropanamide]: the IC50 with MCF-7 cells [4] (setting [12]) came to 6.7 µM; in the data set on MCF-7TN-R cells [5] (setting [13]) it was 11.1 µM; with MDA-MB-231 cells [6] (setting [14]), 6.1 µM.
The matching figures for `CCCCCCCCCCCCCCNC(=O)[C@H](CO)NC(=O)c1cc(OC)cc(OC)c1` [II-5, (S)—N-(3-hydroxy-1-oxo-1-(tetradecylamino)propan-2-yl)-3,5-dimethoxybenzamide]: 11.2 µM, 15 µM and 6.6 µM.
The matching figures for `CCCCCCCCCCCCCCNC(=O)[C@H](CO)NC(C)=O` [II-6, (S)-2-acetamido-3-hydroxy-N-tetradecylpropanamide]: 44.7 µM, 52.7 µM and 75.1 µM.
For `CCCCCCCCCCCCCCNC(=O)[C@H](CO)N=Cc1ccc([N+](=O)[O-])cc1` [II-7, (S)-2-(4-nitrobenzylideneamino)-3-hydroxy-N-tetradecylpropanamide], the “Log K” value in data set [7] amounted to 0.86. Moreover, in the data set with MCF-7TN-R cells [8], the IC50 amounted to 216 µM.
The matching figures for `CCCCCCCCCCCCCCNC(=O)[C@H](CO)N=Cc1cccc([N+](=O)[O-])c1` [II-8, (S)-2-(3-nitrobenzylideneamino)-3-hydroxy-N-tetradecylpropanamide]: 0.86 and 104 µM.
The matching figures for `CCCCCCCCCCCCCCNC(=O)[C@H](CO)N=Cc1ccccc1[N+](=O)[O-]` [II-9, (S)-2-(2-nitrobenzylideneamino)-3-hydroxy-N-tetradecylpropanamide]: 0.88 and 21.7 µM.
Taken in the same sequence, the figures for `CCCCCCCCCCCCCCNC(=O)[C@H](CO)N=Cc1ccc(C)cc1` [II-10, (S)-2-(4-methylbenzylideneamino)-3-hydroxy-N-tetradecylpropanamide] were 1.09 and 102 µM.
In the case of `CCCCCCCCCCCCCCNC(=O)[C@H](CO)N=Cc1cccc(C)c1` [II-11, (S)-2-(3-methylbenzylideneamino)-3-hydroxy-N-tetradecylpropanamide], the “Log K” value in data set [7] stood at 1.09. Further, the IC50 in the data set on MCF-7TN-R cells [8] was 82.9 µM.
For the molecule `CCCCCCCCCCCCCCNC(=O)[C@H](CO)N=Cc1ccccc1C` [II-12, (S)-2-(2-methylbenzylideneamino)-3-hydroxy-N-tetradecylpropanamide], the “Log K” value in data set [7] is given as 1.09. Further, the IC50 in the data set with MCF-7TN-R cells [8] came to 87.7 µM.
Taken in the same sequence, the figures for `CCCCCCCCCCCCCCNC(=O)[C@H](CO)N=Cc1ccc(Cl)cc1` [II-13, (S)-2-(4-chlorobenzylideneamino)-3-hydroxy-N-tetradecylpropanamide] were 1.09 and 27.5 µM.
Taken in the same sequence, the figures for `CCCCCCCCCCCCCCNC(=O)[C@H](CO)N=Cc1cccc(Cl)c1` [II-14, (S)-2-(3-chlorobenzylideneamino)-3-hydroxy-N-tetradecylpropanamide] were 1.08 and 24.1 µM.
Taken in the same sequence, the figures for `CCCCCCCCCCCCCCNC(=O)[C@H](CO)N=Cc1ccccc1Cl` [II-15, (S)-2-(2-chlorobenzylideneamino)-3-hydroxy-N-tetradecylpropanamide] were 1.12 and 10.3 µM.
For the molecule `CCCCCCCCCCCCCCNC(=O)[C@H](CO)N=Cc1ccc(OC)cc1` [II-16, (S)-2-(4-methoxybenzylideneamino)-3-hydroxy-N-tetradecylpropanamide], the “Log K” value in data set [7] turned out to be 0.91. Moreover, the IC50 in the data set on MCF-7TN-R cells [8] worked out at 28.1 µM.
Turning to `CCCCCCCCCCCCCCNC(=O)[C@H](CO)N=Cc1cccc(OC)c1` [II-17, (S)-2-(3-methoxybenzylideneamino)-3-hydroxy-N-tetradecylpropanamide], the “Log K” value in data set [7] was 0.92. Besides, the IC50 with MCF-7TN-R cells [8] was determined as 31.2 µM.
Turning to `CCCCCCCCCCCCCCNC(=O)[C@H](CO)N=Cc1ccccc1OC` [II-18, (S)-2-(2-methoxybenzylideneamino)-3-hydroxy-N-tetradecylpropanamide], the “Log K” value in data set [7] stood at 0.89. Also, in the data set with MCF-7TN-R cells [8], the IC50 turned out to be 12.5 µM.
With `CCCCCCCCCCCCCCNC(=O)[C@H](CO)N=Cc1ccc(O)cc1` [II-19, (S)-2-(4-hydroxybenzylideneamino)-3-hydroxy-N-tetradecylpropanamide], in data set [7], the “Log K” value was determined as 0.73. Besides, the IC50 with MCF-7TN-R cells [8] amounted to 19.3 µM.
Taken in the same sequence, the figures for `CCCCCCCCCCCCCCNC(=O)[C@H](CO)N=Cc1cccc(O)c1` [II-20, (S)-2-(3-hydroxybenzylideneamino)-3-hydroxy-N-tetradecylpropanamide] were 0.76 and 32.6 µM.
The matching figures for `CCCCCCCCCCCCCCNC(=O)[C@H](CO)N=Cc1ccccc1O` [II-21, (S)-2-(2-hydroxybenzylideneamino)-3-hydroxy-N-tetradecylpropanamide]: 0.89 and 19 µM.

The IC50 is the concentration that inhibits the measured activity by half.
